Data as given in the NIST ThermoML archive (doi:10.1016/j.jct.2013.08.031).

Assay: mn = molality of the nth substance listed, in mol/kg
Details: 74.66 kPa, Liquid, Vibrating tube method

CCCC[N+](CCCC)(C(C)CC)C(C)CC.[Br-] (stereo not given) [N-butyl-N,N-bis(1-methylpropyl)-1-butanaminium bromide] + O
mass density [kg/m3]
Details | m1 = 0.01181 | m1 = 0.02026 | m1 = 0.03102 | m1 = 0.04017 | m1 = 0.05043 | m1 = 0.0598 | m1 = 0.06968 | m1 = 0.08191 | m1 = 0.09038 | m1 = 0.1036
298.15 K | 997.635 | 998.067 | 998.623 | 999.106 | 999.638 | 1000.14 | 1000.66 | 1001.3 | 1001.76 | 1002.47
303.15 K | 996.234 | 996.663 | 997.215 | 997.699 | 998.223 | 998.719 | 999.241 | 999.878 | 1000.33 | 1001.03
308.15 K | 994.634 | 995.062 | 995.611 | 996.096 | 996.617 | 997.117 | 997.631 | 998.265 | 998.711 | 999.421

CCCC[N+](CCCC)(CC(C)C)CC(C)C.[Br-] [N-butyl-N,N-bis(2-methylpropyl)-1-butanaminium bromide] + O
mass density [kg/m3]
Details | m1 = 0.01065 | m1 = 0.01998 | m1 = 0.0287 | m1 = 0.03815 | m1 = 0.04991 | m1 = 0.05935 | m1 = 0.06884 | m1 = 0.08078 | m1 = 0.0922 | m1 = 0.1044
298.15 K | 997.571 | 998.046 | 998.493 | 998.971 | 999.575 | 1000.05 | 1000.54 | 1001.16 | 1001.72 | 1002.35
303.15 K | 996.173 | 996.647 | 997.094 | 997.573 | 998.175 | 998.652 | 999.131 | 999.751 | 1000.31 | 1000.94
308.15 K | 994.575 | 995.047 | 995.492 | 995.975 | 996.571 | 997.048 | 997.529 | 998.152 | 998.702 | 999.327

CC(C)C[N+](CC(C)C)(CC(C)C)CC(C)C.[Br-] [tetra-iso-butyl ammonium bromide] + O
mass density [kg/m3]
Details | m1 = 0.01022 | m1 = 0.02021 | m1 = 0.02983 | m1 = 0.03847 | m1 = 0.04829 | m1 = 0.05621 | m1 = 0.06888 | m1 = 0.07666 | m1 = 0.08623 | m1 = 0.1002
298.15 K | 997.574 | 998.092 | 998.59 | 999.027 | 999.524 | 999.922 | 1000.56 | 1000.96 | 1001.43 | 1002.15
303.15 K | 996.171 | 996.676 | 997.167 | 997.6 | 998.101 | 998.499 | 999.123 | 999.518 | 999.988 | 1000.7
308.15 K | 994.553 | 995.043 | 995.531 | 995.96 | 996.462 | 996.855 | 997.478 | 997.85 | 998.324 | 999.035

CCC(C)[N+](C(C)CC)(C(C)CC)C(C)CC.[Br-] (stereo not given) [tetra-sec-butyl ammonium bromide] + O
mass density [kg/m3]
Details | m1 = 0.0097 | m1 = 0.01981 | m1 = 0.03014 | m1 = 0.04066 | m1 = 0.04983 | m1 = 0.0598 | m1 = 0.07027 | m1 = 0.07997 | m1 = 0.08984 | m1 = 0.1018
298.15 K | 997.488 | 997.958 | 998.439 | 998.953 | 999.408 | 999.909 | 1000.44 | 1000.95 | 1001.45 | 1002.08
303.15 K | 996.085 | 996.548 | 997.029 | 997.518 | 997.974 | 998.449 | 998.977 | 999.449 | 999.971 | 1000.56
308.15 K | 994.477 | 994.931 | 995.392 | 995.891 | 996.309 | 996.799 | 997.293 | 997.778 | 998.299 | 998.923

CCCC[N+](CCCC)(CCCC)CCCC.[Br-] [tetrabutylammonium bromide] + O
mass density [kg/m3]
Details | m1 = 0.01143 | m1 = 0.02179 | m1 = 0.02564 | m1 = 0.03767 | m1 = 0.0459 | m1 = 0.05855 | m1 = 0.0711 | m1 = 0.07968 | m1 = 0.09066 | m1 = 0.1003
298.15 K | 997.306 | 997.542 | 997.632 | 997.89 | 998.083 | 998.37 | 998.631 | 998.818 | 999.091 | 999.267
303.15 K | 995.897 | 996.124 | 996.207 | 996.459 | 996.642 | 996.918 | 997.168 | 997.351 | 997.608 | 997.806
308.15 K | 994.271 | 994.493 | 994.567 | 994.819 | 994.986 | 995.247 | 995.487 | 995.662 | 995.912 | 996.121
